# In BindingDB's records for doi:10.1016/j.bmcl.2003.08.040 (Toa Eiyo, 2003):
# pIC50: −log10 of the molar value.
# Biological target: Chymotrypsinogen A (Bos taurus) (UniProt P00766)
# Experiment: In vitro inhibitory activity against bovin chymotrypsin
row,Compound,pIC50
1,CC(=O)c1ccc(NS(=O)(=O)c2sc3ccc(F)cc3c2C)c(S(C)(=O)=O)c1 [5-Fluoro-3-methyl-benzo[b]thiophene-2-sulfonic acid (4-acetyl-2-methanesulfonyl-phenyl)-amide],< 5.00
2,COC(=O)c1ccc(NS(=O)(=O)c2sc3ccc(Cl)cc3c2C)c(S(C)(=O)=O)c1 [4-(5-Chloro-3-methyl-benzo[b]thiophene-2-sulfonylamino)-3-methanesulfonyl-benzoic acid methyl ester],< 5.00
3,COC(=O)c1ccc(NS(=O)(=O)c2sc3ccc(F)cc3c2C)c(S(C)(=O)=O)c1 [4-(5-Fluoro-3-methyl-benzo[b]thiophene-2-sulfonylamino)-3-methanesulfonyl-benzoic acid methyl ester],< 5.00
